The text below walks through data of patent US20150038545A1, “HYDROXYPHENYL PYRROLE COMPOUNDS CONTAINING AN HYDROXAMIC ACID AS HDAC INHIBITORS AND MEDICINAL APPLICATIONS THEREOF” (UNIVERSIDAD DEL PAÍS VASCO, priority 2011, published 2015).

What is called IC50 is the concentration needed to halve the response being measured. Read a high IC50 as a need for much substance.

The test system of test [1] is SW480. The test is described as follows: Cancer cell growth inhibition (CellTiter-Glo), SW480. The class given is cell-based, Human. As to conditions: Homo sapiens; Colorectal Cancer, SW480, 72 h treatment. The protocol:
(§1) Cell culture-based assays were used to evaluate the ability of compounds of the invention to inhibit cancer cell growth.
(§2) Cells were obtained from the American Type Culture Collection (ATCC). Cells were cultured at 37° C. with 5% CO2 in the appropriate growth medium (see table below), and harvested respectively during the logarithmic growth period and counted with hemocytometer. The cell viability was examined by trypan blue exclusion. Cell concentrations were adjusted to 5.56×10^4 cells/ml with respective medium.
(§3) Stock solutions of test compounds and positive drugs Doxorubicin (Zhejiang, Haizheng, China), Cisplatin (Nanjing Zhiyao, China) and Mitomycin (Zhejiang, Haizheng, China) were prepared in dimethyl sulphoxide (DMSO) or PBS at 20 mM.
(§4) In order to determine the IC50 for each compound, experiments were carried out in 96-well plates and the cell lines seeded at a density of 5,000 cells/well. […] All treatments were performed in triplicate. 10 μl of drug solution was added to each well and incubated for 72 hours. At the end of the incubation, 100 μl of the CellTiter-Glo Reagent were added to each well and the contents were mixed for 2 munites on an orbital shaker to induce cell lysis. The plate was incubated at room temperature for 10 minutes to stabilize luminiscent signal, and luminiscent was recorded. […] In order to calculate IC50 values, dose-responsive curves were fitted using nonlinear regression model with a sigmoidal dose response.
(In general: ATP-based viability assays read luminescence as a measure of living cells.)

The test system of test [2] is MCG803. The test is described as follows: Cancer cell growth inhibition (CellTiter-Glo), MCG803. The test is classed as cell-based, Human. The following applies: Homo sapiens; Gastric Cancer, MCG803, 72 h treatment. The protocol: as §1, §2, §3, §4

For the compound `O=C(CCCCCNC(=O)c1[nH]c(-c2ccccc2)cc1-c1ccc(O)cc1)NO` [Example 1, N-(6-(hydroxyamino)-6-oxohexyl)-3-(4-hydroxyphenyl)-5-phenyl-1H-pyrrole-2-carboxamide], the IC50 in test [1] came out at 1.73 µM; in test [2] it was 1.11 µM.

`O=C(CCCCCNC(=O)c1[nH]c(-c2ccc(O)cc2)cc1-c1ccoc1)NO` [Example 5, 3-(3-furyl)-N-(5-(hydroxycarbamoyl)pentyl)-5-(4-hydroxy-phenyl)-1H-pyrrole-2-carboxamide]: the IC50 was 0.48 µM in test [1] and 2.61 µM in test [2].

Consider `O=C(CCCCCNC(=O)c1[nH]c(-c2ccc(O)cc2)cc1-c1ccccc1)NO` [Example 2, N-(6-(hydroxyamino)-6-oxohexyl)-5-(4-hydroxyphenyl)-3-phenyl-1H-pyrrole-2-carboxamide], for which the IC50 was 2.12 µM in test [1] and 3.08 µM in test [2].

With `O=C(CCCCCNC(=O)c1[nH]c(-c2ccc(O)cc2)cc1-c1ccsc1)NO` [Example 6, N-(5-(hydroxycarbamoyl)pentyl)-5-(4-hydroxyphenyl)-3-(3-thienyl)-1H-pyrrole-2-carboxamide], the IC50 in test [1] was found to be 1.08 µM; in test [2], 2.82 µM.
